Entries after “also recorded” stand apart in the source; their conditions may differ.
How the values were obtained:
ERβ = ERβ (Homo sapiens, UniProt Q92731); test: Relative binding affinity (RBA) to estrogen receptor beta, radiometric measurement; conditions: for β/α Ratio: ratio of RBA ERβ to RBA ERα; for RBA ERβ: relative value to 100% for E2 by radiometric measurement
[1] = tested on: primary oligodendrocyte and oligodendrocyte precursor cells (OL/OPCs); test: Primary OPC culture differentiation (MBP immunostaining, DAPI); type: cell-based, mouse; design: key to %MBP+/DAPI: *: The level of production of myelin basic protein (MBP); ---: reduction of MBP; conditions: for MBP+/DAPI ratio (OPC differentiation): FIG. 10B; for %MBP+/DAPI: level of production of myelin basic protein in primary OPC/OL cultures
Procedure: Primary OPC Cultures: Primary OPCs, isolated from postnatal day P1 C57BL/6 male and female mouse cortices as described previously, were treated with 10 nM ligands in differentiating medium for 3 days (Tiwari-Woodruff et al., 2001; Tiwari-Woodruff et al., 2006). Primary OPC were cultured into 8-well chamber slides (three wells per condition, 2.5×10^5 cells/well) for three days to attach and […] in differentiating media (consisting of DMEM-F12 with triiodothyronine- and thyroxine-containing Sato as well as penicillin, streptomycin, insulin, N-acetyl-L-cysteine, forskolin, ciliary neurotrophic factor, neurotrophin-3, and platelet-derived growth factor receptor α (Tiwari-Woodruff et al., 2001)). A positive control (IndCl), a negative control (Vehicle consisting of the media+EtOH mixture used to dissolve IndCl), and a normal control (differentiating media alone) were used for comparison. At the end of the treatment period, cells were fixed, stained by immunocytochemistry (primary antibody polyclonal chicken myelin basic protein (MBP, Millipore AB9348), shown in green and co-stained with nuclear stain—DAPI shown in blue), and imaged with an Olympus BX61 confocal microscope (Olympus America Inc., Center Valley, Pa.) at 10× magnification (3 images per well). Cells were counted using the ImageJ multipoint tool, and counts were then divided by the image area (mm^2). Average cell density for each condition was then divided by the normal condition cell density. Analysis of OL differentiation consisted of counting the number of MBP+ cells and process extensions that were longer than the respective cell-body diameter and tracking the number of highly branched MBP+ cells (with three or more processes) (Monnerie et al., 2017). Statistics were performed using GraphPad Prism 6 Software (La Jolla, Calif.). One-way ANOVA with Tukey's posthoc test for multiple comparisons was used to generate p-values, and data are presented as mean SEM (with α≤0.05).
Primary OPC cultures were used as a convenient cell-based assay to characterize the proliferation and/or differentiation effects of the new IndCl analogues and to select those most suitable for more extensive studies to be done in comparison with the parental ligand, IndCl. 48 hours after plating OPCs, one of seven IndCl analogues (FIG. 1A) was added to differentiating media at a concentration of 10 nM (De Angelis et al., 2005; Saijo et al., 2011). OPCs were allowed to differentiate for 3 days in the presence of IndCl or analogues, at which point they were fixed, immunostained for OPC/OL markers, and quantified. […] The total number of cells in culture was not altered by any treatment (FIGS. 1B and 1D).

ERα = molecular target: T1, ERα (Homo sapiens, UniProt P03372); test: Relative binding affinity (RBA) to estrogen receptor alpha, radiometric measurement; conditions: relative value to 100% for E2 by radiometric measurement
T1 sequence (P03372 1-595): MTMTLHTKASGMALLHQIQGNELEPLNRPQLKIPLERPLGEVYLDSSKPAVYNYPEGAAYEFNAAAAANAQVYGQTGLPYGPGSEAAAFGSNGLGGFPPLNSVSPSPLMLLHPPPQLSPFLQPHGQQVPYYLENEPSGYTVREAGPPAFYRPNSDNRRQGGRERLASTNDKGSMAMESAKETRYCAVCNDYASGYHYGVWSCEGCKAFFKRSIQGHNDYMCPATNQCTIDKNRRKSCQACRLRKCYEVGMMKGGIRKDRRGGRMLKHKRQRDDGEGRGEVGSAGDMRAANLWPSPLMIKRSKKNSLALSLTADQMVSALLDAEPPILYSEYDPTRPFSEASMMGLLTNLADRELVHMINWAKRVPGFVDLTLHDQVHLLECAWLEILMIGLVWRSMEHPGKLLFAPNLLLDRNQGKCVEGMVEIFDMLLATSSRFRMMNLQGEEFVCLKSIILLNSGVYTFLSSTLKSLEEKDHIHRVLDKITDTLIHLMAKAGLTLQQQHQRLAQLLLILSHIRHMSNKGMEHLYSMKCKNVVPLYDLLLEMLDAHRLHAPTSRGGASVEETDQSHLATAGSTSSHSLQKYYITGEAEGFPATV

ERβ, sequence (Q92731 whole entry, species assumed): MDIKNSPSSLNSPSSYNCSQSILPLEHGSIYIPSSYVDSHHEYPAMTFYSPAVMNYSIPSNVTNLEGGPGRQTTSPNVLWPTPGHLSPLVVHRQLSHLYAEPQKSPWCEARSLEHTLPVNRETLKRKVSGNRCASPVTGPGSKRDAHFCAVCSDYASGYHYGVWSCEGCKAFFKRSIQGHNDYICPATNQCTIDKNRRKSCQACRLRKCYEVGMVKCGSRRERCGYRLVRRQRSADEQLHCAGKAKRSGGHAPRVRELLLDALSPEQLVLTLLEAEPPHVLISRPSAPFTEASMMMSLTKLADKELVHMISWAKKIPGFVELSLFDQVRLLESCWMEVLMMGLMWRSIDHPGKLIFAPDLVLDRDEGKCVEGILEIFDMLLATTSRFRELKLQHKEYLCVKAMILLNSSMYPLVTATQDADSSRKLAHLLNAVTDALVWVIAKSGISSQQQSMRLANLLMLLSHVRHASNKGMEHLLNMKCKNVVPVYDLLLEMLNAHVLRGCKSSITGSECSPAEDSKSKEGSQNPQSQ

SMILES	β/α Ratio (ERβ)	RBA ERβ (ERβ) [%]	number of MBP+ OLs (differentiated OLs) ([1]; 10 nM, 3 days in differentiating media, vs vehicle-treated cells)	branched OLs / complex branching cells ([1]; 10 nM, vs vehicle-treated cells)	RBA ERα (ERα) [%]	MBP+/DAPI ratio (OPC differentiation) [1]	%MBP+/DAPI [1]
Oc1ccc(-n2nc3ccc(O)cc3c2Cl)c(I)c1 [IndCl-o-I, 2-(2-iodo-4-hydroxyphenyl)-3-chloro-2H-indazol-5-ol]	15.7	5.38	significant increase; also recorded: significantly increased	increase in the percentage of branched OLs	0.34		
Oc1cc(Cl)c(-n2cc3cc(O)ccc3n2)c(Cl)c1 [IndH-o-Cl2, 2-(2,6-dichloro-4-hydroxyphenyl)-2H-indazol-5-ol]	9.3	0.82			0.088		
Oc1ccc(-n2nc3ccc(O)cc3c2Br)c(Cl)c1 [IndBr-o-Cl, 3-bromo-2-(2-chloro-4-hydroxyphenyl)-2H-indazol-5-ol]	19.9	16.12			0.81		
Oc1ccc(-n2nc3ccc(O)cc3c2I)c(I)c1 [IndI-o-I, 2-(4-hydroxy-2-iodophenyl)-3-iodo-2H-indazol-5-ol]	6.7	2.5			0.37		
Oc1ccc(-n2nc3ccc(O)cc3c2Cl)c(C(F)(F)F)c1 [IndCl-o-CF3, 3-chloro-2-(4-hydroxy-2-(trifluoromethyl)phenyl)-2H-indazol-5-ol]	3.7	10.39			2.84		
Cc1cc(-n2nc3ccc(O)cc3c2Cl)ccc1O [IndCl-m-Me, 3-chloro-2-(4-hydroxy-3-methylphenyl)-2H-indazol-5-ol]	5.8	0.74			0.13		
Oc1cc(F)c(-n2nc3ccc(O)c(Cl)c3c2Cl)c(F)c1 [IndCl-o-F2-4-Cl, 3,4-dichloro-2-(2,6-difluoro-4-hydroxyphenyl)-2H-indazol-5-ol]	3.6	0.28			0.076	greatest increase	
Oc1ccc(-n2nc3ccc(O)cc3c2Cl)c(Br)c1 [IndCl-o-Br, 2-(2-bromo-4-hydroxyphenyl)-3-chloro-2H-indazol-5-ol]	17.9	8.31			0.47		*
Oc1ccc(-n2nc3ccc(O)cc3c2Cl)c(C2SCCS2)c1 [IndCl-o-Thiolane, 2-(2-(1,3-dithiolan-2-yl)-4-hydroxyphenyl)-3-chloro-2H-indazol-5-ol]	13.0	2.34			0.18		
Oc1ccc(-n2nc3ccc(O)c(Cl)c3c2Cl)c(Cl)c1 [IndCl-o-Cl-4-Cl, 2-(2-chloro-4-hydroxyphenyl)-3,4-dichloro-2H-indazol-5-ol]	0.46	0.73			0.33		*
Oc1ccc(-n2nc3ccc(O)cc3c2Br)c(Br)c1 [IndBr-o-Br, 3-bromo-2-(2-bromo-4-hydroxyphenyl)-2H-indazol-5-ol]	4.2	5.84			1.40		*
Oc1ccc(-n2nc3ccc(O)cc3c2Cl)c(O)c1 [IndCl-o-OH, 4-(3-chloro-5-hydroxy-2H-indazol-2-yl)benzene-1,3-diol]	48.2	2.99			0.062	greatest increase	
Oc1ccc(-n2nc3ccc(O)cc3c2F)c(Cl)c1 [IndF-o-Cl, 2-(2-chloro-4-hydroxyphenyl)-3-fluoro-2H-indazol-5-ol]	4.0	1.09			0.27		
Oc1ccc(-c2c3cc(O)ccc3nn2-c2ccc(O)cc2)cc1 [Ind-Ph-p-OH, 4,4′-(5-hydroxy-2H-indazole-2,3-diyl)diphenol]	7.8	0.63			0.08		
Oc1ccc(-n2nc3ccc(O)cc3c2I)c(Cl)c1 [IndI-o-Cl, 2-(2-chloro-4-hydroxyphenyl)-3-iodo-2H-indazol-5-ol]	10.5	4.93			0.47		
Oc1ccc(-n2nc3ccc(O)cc3c2Br)c(I)c1 [IndBr-o-I, 3-bromo-2-(4-hydroxy-2-iodophenyl)-2H-indazol-5-ol]	12.8	6.28			0.49		
Oc1ccc(-n2nc3ccc(O)cc3c2Cl)c(F)c1 [IndCl-o-F, 3-chloro-2-(2-fluoro-4-hydroxyphenyl)-2H-indazol-5-ol]	52.4	9.79			0.19		
Oc1ccc2nn(-c3ccc(O)c(F)c3)c(Cl)c2c1 [IndCl-m-F, 3-chloro-2-(3-fluoro-4-hydroxyphenyl)-2H-indazol-5-ol]	75.7	10.5			0.14		
Oc1ccc(-n2nc3ccc(O)cc3c2F)c(I)c1 [IndF-o-I, 3-fluoro-2-(4-hydroxy-2-iodophenyl)-2H-indazol-5-ol]	2.3	0.61			0.27		
Oc1ccc(-n2nc3ccc(O)cc3c2I)c(Br)c1 [IndI-o-Br, 2-(2-bromo-4-hydroxyphenyl)-3-iodo-2H-indazol-5-ol]	5.3	6.64			1.25		
OCc1c2cc(O)ccc2nn1-c1ccc(O)cc1 [Ind-CH2OH, 3-(hydroxymethyl)-2-(4-hydroxyphenyl)-2H-indazol-5-ol]	35.8	1.43			0.04		
Oc1ccc(-n2nc3ccc(O)cc3c2C2SCCS2)cc1 [Ind-Thiolane, 3-(1,3-dithiolan-2-yl)-2-(4-hydroxyphenyl)-2H-indazol-5-ol]	10.3	0.31			0.03		
Oc1cc(Cl)c(-n2nc3ccc(O)c(Cl)c3c2Cl)c(Cl)c1 [IndCl-o-Cl2-4-Cl, 3,4-dichloro-2-(2,6-dichloro-4-hydroxyphenyl)-2H-indazol-5-ol]	21.1	2.3			0.11		
Oc1cc(F)c(-n2cc3cc(O)ccc3n2)c(F)c1 [IndH-o-F2, 2-(2,6-difluoro-4-hydroxyphenyl)-2H-indazol-5-ol]	2.0	0.06			0.03		
C=Cc1c2cc(O)ccc2nn1-c1ccc(O)cc1Br [Ind-vinyl-o-Br, 2-(2-bromo-4-hydroxyphenyl)-3-vinyl-2H-indazol-5-ol]	14.9	8.04			0.54		
OCc1cc(O)ccc1-n1nc2ccc(O)cc2c1Cl [IndCl-o-CH2OH, 3-chloro-2-(4-hydroxy-2-(hydroxymethyl)phenyl)-2H-indazol-5-ol]	18.0	2.34			0.13		
C=CCc1c2cc(O)ccc2nn1-c1ccc(O)cc1Br [Ind-allyl-o-Br, 3-allyl-2-(2-bromo-4-hydroxyphenyl)-2H-indazol-5-ol]	2.5	0.86			0.34		
Cc1cc(O)ccc1-n1nc2ccc(O)cc2c1I [IndI-o-Me, 2-(4-hydroxy-2-methylphenyl)-3-iodo-2H-indazol-5-ol]	7.0	9.64			1.38		
